{"source": "patent US7670613B2", "about": "“Androgen modulators” (Pfizer Inc., priority 2004, dated 2010)", "tested_on": "male C3H/HeN mice", "experiment": "Modified telogen conversion assay", "assay_type": "in vivo, mouse", "settings": "topical 1% and 3% w/v, twice daily for 4 weeks, observed 35 days or longer", "excerpt": "The telogen conversion assay measures the potential of a compound to convert the resting stage of the hair growth cycle (“telogen”) to the active stage of the hair growth cycle (“anagen”) in mice. This assay takes advantage of the fact that the fur (i.e. hair) of 7-week-old C3H/HeN mice is in the telogen phase. This phase continues until about 75 days of age. In this assay, selected areas of the mice are shaved, contacted with a test agent, or a control, and the difference in the rate of hair growth is measured (i.e. induction of the anagen phase). The first sign of anagen is the darkening of skin color as melanocytes in the follicles start to synthesize melanin, in preparation for the production of pigmented hairs. This model has a number of advantages. This includes the ready availability of female CH3HeN mice, the ability to screen large numbers of compounds quickly, and the ease of housing and handling such animals.\nIt has been discovered that male C3H/HeN mice may be used in the telogen conversion assay, when evaluating anti-androgen test compounds. Thus, the model relates to a modification of the existing telogen conversion assay. […]\nThe treatment area was observed and graded every other day for signs of hair growth. The hair growth response was quantified by recording, for each animal, the day on which signs of hair growth first appeared over the treated area. […]"}
{"compound": "CC1CCCCC1Oc1ccc(C#N)c(C(F)(F)F)c1", "note": "(stereo not shown) [Example 8, 4-(2-Methyl-cyclohexyloxy)-2-trifluoromethyl-benzonitrile]", "values": [{"measurement": "Initiation of anagen (first signs of hair growth) versus vehicle control", "value": "not initiated in either of the test groups prior to its occurrence in the vehicle control group"}]}
